Laboratory results published in patent US20230172204A1 (BASF SE, priority 2020, published 2023).

Assays:
[1] = tested on: Phakopsora pachyrhizi (F129L); experiment: Protective control of soybean rust on soybeans (PHAKPA P2); assay type: in vivo; settings: for % PHAKPA (F129L) Disease level P2 at 4 ppm: protective P2, 4 ppm; for % PHAKPA (F129L) Disease level P2 at 4 ppm / % PHAKPA (F129L) Disease level P2 at 16 ppm: soybean rust F129L; for % PHAKPA (F129L) Disease level P2 at 16 ppm: protective P2, 16 ppm
[2] = tested on: Phakopsora pachyrhizi (F129L); experiment: Protective control of soybean rust on soybeans (PHAKPA P6); assay type: in vivo; settings: for % PHAKPA (F129L) Disease level P6 at 4 ppm: protective P6, 4 ppm; for % PHAKPA (F129L) Disease level P6 at 4 ppm / % PHAKPA (F129L) Disease level P6 at 16 ppm: soybean rust F129L; for % PHAKPA (F129L) Disease level P6 at 16 ppm: protective P6, 16 ppm; for PHAKPA (F129L) Disease level (%) P6 at 16 ppm: P6 protective, % diseased leaf area
[3] = P2 protective, % diseased leaf area

Compound	% PHAKPA (F129L) Disease level P2 at 4 ppm [1] [%]	% PHAKPA (F129L) Disease level P2 at 16 ppm [1] [%]	% PHAKPA (F129L) Disease level P6 at 4 ppm [2] [%]	% PHAKPA (F129L) Disease level P6 at 16 ppm [2] [%]	PHAKPA (F129L) Disease level (%) P2 at 16 ppm [1, 3] [%]	PHAKPA (F129L) Disease level (%) P6 at 16 ppm [2] [%]	PHAKPA (F129L) Disease level (%) P2 at 4 ppm ([1]; P2 protective, 4 ppm, % diseased leaf area) [%]
CNC(=O)/C(=N/OC)c1cccc(C)c1CO/N=C(\C)c1cccc(OC/C(C)=N/OC)c1 [compound 226]	28	3	57	7	–	–	–
CNC(=O)/C(=N/OC)c1cccc(C)c1CO/N=C(\C)c1cccc(OC(F)(F)F)c1 [compound 29]	–	0	–	0	–	–	–
COC=C(C(=O)OC)c1cccc(C)c1CON=C(C)c1ccc(Cl)c(F)c1OC(F)(F)F [compound 452]	60	6	70	14	–	–	–
CO/N=C(/C(=O)OC)c1cccc(C)c1CO/N=C(\C)c1cc(F)ccc1C(F)(F)F [compound 249]	87	37	90	43	–	–	–
CO/C=C(/C(=O)OC)c1ccccc1CO/N=C(\C)c1ccccc1C(F)(F)F [reference compound]	–	–	–	–	11	9	–
CNC(=O)/C(=N/OC)c1cccc(C)c1CO/N=C(\C)c1c(Cl)cccc1C(F)(F)F [compound 290]	92	14	83	21	–	–	–
CCc1ccccc1/C(C)=N/OCc1c(C)cccc1/C(=N\OC)C(=O)NC [compound 176]	100	100	100	90	–	–	–
CO/N=C(/C(=O)OC)c1ccccc1CO/N=C(\C)c1ccccc1C(F)(F)F [reference compound]	–	–	–	–	87	90	–
CNC(=O)/C(=N/OC)c1cccc(C)c1CO/N=C(\C)c1cccc(-c2cc(C)on2)c1 [compound 42]	60	23	60	20	–	–	–
CO/N=C(/C(=O)OC)c1cccc(C)c1CO/N=C(\C)c1cc(C)cc(Cl)c1 [compound 101]	70	37	60	17	–	–	–
CNC(=O)/C(=N/OC)c1cccc(C)c1CO/N=C(\C)c1cccc(-c2noc(C(F)(F)F)n2)c1 [compound 67]	67	2	80	30	–	–	–
CO/N=C(/C(=O)OC)c1cccc(C)c1CO/N=C(\C)c1c(F)ccc(F)c1OC(F)(F)F [compound 366]	53	13	83	12	–	–	–
CNC(=O)/C(=N/OC)c1cccc(C)c1CO/N=C(\C)c1c(F)cccc1C(F)(F)F [compound 345]	22	1	32	1	–	–	–
CO/N=C(/C(=O)OC)c1cccc(C)c1CO/N=C(\SC)c1cccc(Cl)c1 [drawing 982, reference compound]	–	–	–	–	–	18	47
CO/C=C(/C(=O)OC)c1cccc(C)c1CO/N=C(\C)c1cc(F)c(F)cc1CC(F)(F)F [compound 405]	97	27	70	27	–	–	–
CO/C=C(/C(=O)OC)c1cccc(C)c1CO/N=C(\C)c1ccccc1CC(F)(F)F [compound 437]	2	0	8	0	–	–	–
CNC(=O)/C(=N/OC)c1cccc(C)c1CO/N=C(\C)c1cccc(F)c1 [compound 85]	1	0	0	0	–	–	–
CO/N=C(/C(=O)OC)c1cccc(C)c1CO/N=C(\C)c1cccc(OC)c1 [compound 78]	40	1	30	1	–	–	–
CCc1cccc(/C(=N\OC)C(=O)OC)c1CO/N=C(\C)c1cccc(C(F)(F)F)c1 [compound 61]	70	15	90	18	–	–	–
CO/N=C(/C(=O)OC)c1cccc(C)c1CO/N=C(\C)c1c(F)cccc1C(F)(F)F [compound 365]	77	15	97	43	–	–	–
CO/N=C(/C(=O)OC)c1cccc(C)c1CO/N=C(\C)c1cc(C2CC2)cc(C(F)(F)F)c1 [compound 145]	28	8	37	16	–	–	–
CO/N=C(/C(=O)OC)c1cccc(C)c1CO/N=C(\C)c1cc(C)cc(C)c1 [compound 94]	22	5	35	2	–	–	–
CO/N=C(/C(=O)OC)c1cccc(C)c1CO/N=C(\C)c1ccc(Cc2ccccc2)cc1C(F)(F)F [compound 408]	30	12	33	13	–	–	–
CNC(=O)/C(=N/OC)c1cccc(C)c1CO/N=C(\C)c1cc(C(F)(F)F)ccc1F [compound 199]	0	0	0	0	–	–	–
CNC(=O)/C(=N/OC)c1cccc(C)c1CO/N=C(\C)c1c(F)ccc(F)c1C(F)(F)F [compound 359]	100	37	100	43	–	–	–
CO/N=C(/C(=O)OC)c1cccc(C)c1CO/N=C(\C)c1cccc(F)c1F [compound 177]	100	21	87	47	–	–	–
C=Cc1cccc(/C(=N\OC)C(=O)NC)c1CO/N=C(\C)c1cccc(C(F)(F)F)c1 [compound 14]	6	0	11	1	–	–	–
